Data as given in patent publication US7687453B2, “Method for administering insulin to the buccal region” (Generex Pharmaceuticals Incorporated, priority 1998, dated 2010).

How the values were obtained:
[1] = test system: blood glucose; assay: Blood glucose, nasal mixed micellar insulin vs injection (Example 10); type: in vivo, human; details: injection 10 units, avg of ten volunteers
Method: The formulation of Example 9 was tested in a manner similar to that indicated in Example 8 except that the formulation of the present invention was administered nasally.
On the first day, the ten volunteers each received 10 units insulin injection (regular fast acting, Eli Lilly). On the second day, the volunteers received 20 units of the “oral” insulin of Example 9 (2 times the injection dose). The “oral” insulin was administered as drops (0.4 mL volume per drop, approximately 4 large drops in total, i.e. two drops in each nostril).

[2] = test system: meal glucose; assay: Meal glucose, oral mixed micellar insulin vs injection, Type II diabetic volunteers (Example 12); type: in vivo, human; details: injection 10 units, avg of 10 Type II diabetics, meal 30 min after dosing
Method: The mixed micellar formulation of Example 9 was tested in diabetic volunteers under controlled conditions to determine the oral insulin effect on meal glucose when compared to injected insulin.
In one set of tests, ten Type II diabetic human volunteers who took insulin, by injection three times a day, were studied. In another set of tests the volunteers were tested with insulin, taken orally. The volunteers fasted from midnight prior to the tests, with food being taken 30 minutes after dosing. The meals were standard Sastacal 240 mL liquid diet approved by the Diabetic Society, containing 400 calories.
On the first day, the volunteers received 10 units insulin by injection (regular fast acting insulin, available from Eli Lilly). On the second day, the volunteers received 30 units of the above-prepared oral insulin (3 times the injection dose). In both tests, blood glucose levels were monitored every 15 minutes by Bayer's Glucometer Elite.

## regular fast acting insulin: regular fast acting insulin, available from Eli Lilly, given by injection (10 units)
[1]; 0 min
  Blood glucose levels: 6.8 mmol/L
[1]; 15 min
  Blood glucose levels: 7.0 mmol/L
[1]; 30 min
  Blood glucose levels: 6.8 mmol/L
[1]; 45 min
  Blood glucose levels: 6.3 mmol/L
[1]; 60 min
  Blood glucose levels: 6.3 mmol/L
[1]; 75 min
  Blood glucose levels: 5.8 mmol/L
[1]; 90 min
  Blood glucose levels: 5.2 mmol/L
[1]; 105 min
  Blood glucose levels: 5.0 mmol/L
[1]; 120 min
  Blood glucose levels: 5.2 mmol/L
[1]; 135 min
  Blood glucose levels: 4.2 mmol/L
[1]; 150 min
  Blood glucose levels: 4.6 mmol/L
[1]; 165 min
  Blood glucose levels: 4.0 mmol/L
[1]; 180 min
  Blood glucose levels: 4.1 mmol/L
[1]; 195 min
  Blood glucose levels: 4.3 mmol/L
[1]; 210 min
  Blood glucose levels: 4.5 mmol/L
[1]; 225 min
  Blood glucose levels: 4.7 mmol/L
[1]; 240 min
  Blood glucose levels: 5.0 mmol/L
[2]; 0 min
  Blood glucose levels: 8.7 mmol/L
[2]; 15 min
  Blood glucose levels: 8.8 mmol/L
[2]; 30 min
  Blood glucose levels: 8.9 mmol/L
[2]; 45 min
  Blood glucose levels: 10.1 mmol/L
[2]; 60 min
  Blood glucose levels: 11.8 mmol/L
[2]; 75 min
  Blood glucose levels: 11.8 mmol/L
[2]; 90 min
  Blood glucose levels: 12.2 mmol/L
[2]; 105 min
  Blood glucose levels: 11.2 mmol/L
[2]; 120 min
  Blood glucose levels: 10.4 mmol/L
[2]; 135 min
  Blood glucose levels: 8.4 mmol/L
[2]; 150 min
  Blood glucose levels: 7.3 mmol/L
[2]; 165 min
  Blood glucose levels: 6.5 mmol/L
[2]; 180 min
  Blood glucose levels: 4.3 mmol/L
